Where “and” joins values, the source holds several entries; their conditions need not be identical. Equal values may be shown once. Marks after values point to notes of the source that are not given here.

Data set [1] deals with P-gp at the BBB.
For data set [2], the system named is P-gp. The conditions noted are these: mice, P-gp substrate loperamide, conventional biodistribution; cited from earlier work.
A short description of data set [3]: Single i.v. dose of tariquidar in humans. The class given is in vivo. The settings on record: single i.v. dose of 2 mg/kg, from Cmax.
For data set [4] the following is noted: humans, ref personal communication Dr. U. Elben, Aväant Pharmaceuticals; cited from earlier work.
The next data set can be described thus: Metabolism of. The conditions noted are these: tariquidar 15 mg/kg i.v.
Data set [5] deals with P-gp at the BBB. Briefly: in vivo. The conditions noted are these: Wistar Unilever, rat.
The conditions of data set [6]: humans, single i.v. dose of 2 mg/kg, cited from earlier work.
The subject of data set [7] is P-gp. The settings on record: read-out: half-maximum inhibition constant (IC50); substrate transport by P-gp in vitro; cited from earlier work.
Setting [8] is: 2T4K model, tariquidar 15 mg/kg i.v. 2 h before PET scan (n=5).
Setting [9] is: 2T4K model, with vs without tariquidar 15 mg/kg i.v.

For orientation: ED50 means the dose that gives a 50% effect, or the effect in half of the subjects. The IC50 is the point on the concentration scale where inhibition reaches its midpoint. With `COc1cc2c(cc1OC)CN(CCc1ccc(NC(=O)c3cc(OC)c(OC)cc3NC(=O)c3cnc4ccccc4c3)cc1)CC2` [tariquidar], the “Increase of K1 after tariquidar, 1T2K model” value in the data set on P-gp at the BBB [1] (1T2K model, tariquidar treatment) is given as “+632%”. Further, in the data set on P-gp at the BBB [1] (setting [8]), the “DV of (R)-11C-verapamil with tariquidar” value was 3.68±0.81 mL·mL^−1 and 3.68±0.81 (3) mL·mL^−1; the “K1 of (R)-11C-verapamil with tariquidar” value was 0.58±0.20 (9) mL·mL^−1·min^−1; the “k2 of (R)-11C-verapamil with tariquidar” value is recorded as 0.27±0.07 (43) min^−1; the “k3 of (R)-11C-verapamil with tariquidar” value was 0.37±0.17 (66) min^−1. In the data set on P-gp at the BBB [1] (setting [8]), the “k4 of (R)-11C-verapamil with tariquidar” value is 0.66±0.49 (55) min^−1. For the same compound, in the data set on P-gp at the BBB [1] (setting [9]), the “Relative change of k2” value was −23%, the “Relative change of k3” value is given as “+27%” and the “Relative change of k4” value was −9%. Further, in the data set on P-gp at the BBB [1] (Logan analysis, tariquidar 15 mg/kg i.v. 2 h before PET scan (n=5)), the “DV (Logan) of (R)-11C-verapamil with tariquidar” value is 3.53±0.79 (1) mL·mL^−1. Also, in the data set on P-gp at the BBB [1] (Logan analysis, with vs without tariquidar 15 mg/kg i.v.), the “Relative change of DV (Logan)” value was “+1,007^† %”. Also, in the data set with P-gp at the BBB [1] (maximum effect (DV) of dose-response fit, estimate±asymptotic standard error), the Emax was 4.5±3.8. Further, the “Time of peak uptake of activity in brain after tariquidar injection” value in the data set on P-gp at the BBB [1] (scan 2, 0-90 min after tariquidar 15 mg/kg i.v.) is 32 ± 5 min. Also, the “Brain uptake of activity after tariquidar vs baseline PET scans” value in the data set on P-gp at the BBB [1] (tariquidar 15 mg/kg) was “about 12 fold”. Moreover, the “Increase of DV of (R)-11C-verapamil after tariquidar vs baseline” value in the data set with P-gp at the BBB [1] (tariquidar 15 mg/kg i.v., rat brain) is 12 fold. Also, the 50% effective dose (ED50) in the data set on P-gp [2] was 5.6 mg/kg. In data set [3], the unbound concentration result was “about 0.012 μM”. For the same compound, the “bound to plasma proteins” value in data set [4] was 99.5%. Besides, the “Effect of tariquidar administration on metabolism of (R)-11C-verapamil” value in the data set “Metabolism of” is given as “essentially left unaffected”. In the data set on P-gp at the BBB [5], this compound showed a median effective dose (ED50) at 2 h of 8.4 ± 9.5 mg/kg. In addition, the Tolerability result in data set [6] is “well tolerated”. Further, the Cmax in data set [6] (read-out: maximum plasma concentrations (Cmax)) is about 2300 nM. The IC50 with P-gp [7] was 40 nM and ~40 nM.
